“And” between values parts separate entries of the source, which are not always exact repeats. Equal values may be shown once.
What was measured:
small intestine [1] = test: Co-administration of GLP-2 with IGF-1 or GH: small intestine mass (Example 2); format: in vivo, mice; conditions: for Small Intestine Mass: s.c. twice daily (GH once daily) for 10 days, sacrifice day 11, GLP-2 peptides 2.5 μg, IGF-1/LRIGF-1 50 μg, GH 25 μg per dose, CD1 female mice; for % Change Relative to PBS Control (small intestine) / Change in Intestine Mass Relative to Control (small intestine): same regimen; for Change in Intestine Mass Relative to Control (small intestine): relative to PBS control
Text: (§1) Forty-eight, six week old female CD1 mice (approx. 25 grams, obtained from Charles River Laboratories) were acclimatized in the animal facility for 1 week prior to the experiment. They were housed in plastic bottom, wire lid cages, maintained on a 12 hr light/dark cycle, and allowed chow and water, ad libitum throughout the study. Four days before starting the treatment the mice were weighed using a Mettler PJ300 scale and randomly allocated to 1 of 12 treatment groups. For the experiment, subcutaneous injections in the right hind quarter were given twice daily in the morning and evening for 10 days. However, Growth Hormone (GH) was administered only once a day in the morning. On day 10, the mice were fasted from 12 noon on. Body weight was also taken on day 5 and day 11.
(§2) The treatment groups consisted of the following peptides and peptide combinations. The amount of peptide received per dose by each animal is marked in beside each entry.
(§3) The peptides were weighed (Mettler AE166 scale), reconstituted and aliquoted on the day prior to the first injection. The injection volume, 0.5 ml, was constant through out the experiment using a 1/2 cc U-100 Insulin Syringe (Becton Dickinson and Company, N.J.). All peptide aliquots, except Protropin (GH), were kept at -20° C. and removed 60 minutes prior to injection to thaw. GH was kept at 4° C.
(§4) Control mice (group 1) received the same volume (0.5 ml) of phosphate buffered saline (PBS-1x-137 mM NaCl, 2.7 mM KCl, 4.3 mM Na2HPO4, pH 7.3). Peptides [rat GLP-2] (5 μg/ml) and human [Gly 2] GLP-2 (5 μg/ml) were reconstituted in PBS. One microliter of 1 N NaOH was required to dissolve [Gly2]hGLP-2 in 1 ml.
(§5) IGF recombinant peptides (IGF-1, Lot #FJF-103;Long R3IGF-1(LRIGF-1), Lot# HJF-A01 GroPep Pty Ltd., Australia) stock solutions were reconstituted in 10 mM HCl at a concentration of 1 mg/ml. To minimize the absorption of the peptide to the plastic surface, RIA Grade Bovine Serum Albumin (BSA) (BioLabs Lot 7943) was added to the PBS working solution (100 μg/ml BSA final concentration). Protropin (Growth hormone) (Lot C9009A2, Genentech Canada Inc., Burlington, ON) stock solution was reconstituted with Bacteriostatic water supplied in the kit. The working solution (50 μg/ml) was diluted in PBS (without BSA). Combination treatments of GH+rat GLP-2 and GH+[Gly 2]hGLP-2 were administered by mixing 0.25 mls of each peptide, which were taken up into the same syringe to maintain a consistent injection volume of 0.5 ml. All other combination treatments (for example, rGLP-2+IGF etc.) were initially made up as separate solutions, mixed together, and frozen down together as aliquots of a single mixture, to be administered as single 0.5 ml injections.
(§6) Mice were sacrificed on day 11. Weight measurements were taken for the heart, kidneys, stomach, small intestine and large intestine. Small intestine length was also measured. Blood was taken via cardiac puncture and the plasma was frozen for future analysis. Tissues were also removed for histological analysis.

large intestine = test: Co-administration of GLP-2 with IGF-1 or GH: large intestine mass (Example 2); format: in vivo, mice; conditions: for Large Intestine Mass: s.c. twice daily (GH once daily) for 10 days, sacrifice day 11, GLP-2 peptides 2.5 μg, IGF-1/LRIGF-1 50 μg, GH 25 μg per dose, CD1 female mice; for % Change Relative to PBS Control (large intestine) / Change in Intestine Mass Relative to Control (large intestine): same regimen; for Change in Intestine Mass Relative to Control (large intestine): relative to PBS control
Text: as §1, §2, §3, §4, §5, §6

small intestine [2] = test: Effect of rat GLP-2 on small intestine weight in mice (Example 1); format: in vivo; conditions: for Small Intestine Weight % body wt / Small Intestine Weight Ave: group average; for Small Intestine Weight % body wt / Small Intestine Weight Ave / Small Intestine Weight Day 10: 41.5 μg peptide per injection s.c. every 12 hours for 10 days, CD1 females; for Small Intestine Weight Day 10: single mice
Method: This experiment was designed to investigate the effect of GLP-2 on small intestine growth. Mice were treated with human GLP-1, rat GLP-2, or no peptide, and the mass of the small intestine analyzed.
For this experiment, rat GLP-2 and human GLP-1 (7-36 amide) were custom synthesized by application of the tBoc-based solid phase approach. […] The pH was then readjusted to about 7.0 by addition of an equal volume of IN NaOH […], and the solution volume was then adjusted to 10 mL by addition of distilled water. To prepare the formulation for injection, the 10 mL peptide solution and the 50 mL solution of 16% gelatin were combined with mixing, and aliquots for injection were drawn into a 0.5 mL insulin syringe. The same procedure was used to formulate the GLP-1, with the exception that no acid/base adjustment was necessary given its relative greater solubility in water.
Three groups of six mice (8 week old, CD1 females from Charles River Laboratories) were treated as follows. Each mouse received injections for 10 days. The injections were delivered subcutaneously in a final volume of 16% gelatin, with 0.5 cc injected subcutaneously every 12 hours. Mice treated with GLP-1 or GLP-2 peptide received 41.5 μg of the respective peptide in each injection. Control mice received 0.5 cc of 16% gelatin solution, but no peptide. Mice were fed standard rat chow with free access to food and water, until 12 hours prior to sacrifice, at which time food was withheld, and water only was given. The weight of the small intestine was ascertained by excising the entire intestine, and removing the stomach (proximal end) and appendix/cecum/large intestine (distal end). The remaining small intestine was cleaned with saline to remove feces, and weighed.

Row | Substance | Small Intestine Mass (small intestine [1]) | % Change Relative to PBS Control (small intestine) (small intestine [1]) | Change in Intestine Mass Relative to Control (small intestine) (small intestine [1]) [g] | Large Intestine Mass (large intestine) [g] | % Change Relative to PBS Control (large intestine) (large intestine) | Change in Intestine Mass Relative to Control (large intestine) (large intestine) [g] | increase in the mass of small intestine relative to control group and GLP-1 group (small intestine [2]; about 2 mg/kg (about 500 nmole/kg) twice daily for 10 days) | Small Intestine Weight % body wt (small intestine [2]) | Small Intestine Weight Ave (small intestine [2]) | Small Intestine Weight Day 10 (small intestine [2])
1 | hGH: Protropin (Growth hormone), Genentech Canada Inc. [reference compound] | 1.230 g | +19% | 0.195 | 0.260 | -8% | 0.023 | – | – | – | –
2 | IGF-1: Insulin-Like Growth Factor-1, recombinant peptide, GroPep Pty Ltd. | 1.158 g and 1.517 g | – | – | 0.262 | -7% | 0.021 | – | – | – | –
3 | rat GLP-2: rat Glucagon-like peptide-2, 33 amino acid peptide, custom synthesized by tBoc-based solid phase approach (HADGSFSDEMNTILDNLATRDFINWLIQTKITD; Glucagon-like peptide 2; UniProt P06883 146-178, looked up) | 1.066 g | +3% | 0.031 | 0.245 | -13.10% | -0.038 | statistically significant (p-- 0.05) increase | 8.12 ± .40 % body wt | 2.08 ± .14 gm | 1.8 gm and 2.3 gm and 2.4 gm
4 | human GLP-1 (7-36 amide) [reference compound] | – | – | – | – | – | – | – | 5.26 ± .25 % body wt | 1.33 ± .04 gm | 1.4 gm and 1.3 gm and 1.2 gm
5 | [Gly 2] hGLP-2: Human GLP-2 having Gly substituted for Ala at position 2 (HGDGSFSDEMNTILDNLAARDFINWLIQTKITD; Glucagon-like peptide 2; UniProt P01275 146-178, looked up, variant A2G) | 1.810 g | +75% | 0.775 | 0.308 | +9% | 0.025 | – | – | – | –
